Experiment [1] addresses T1, HypX (Aquifex aeolicus, UniProt O67224).
T1 construct: gene hoxX; residues up to 562 described; acid-denatured mass 67,531 Da; monomer; N-terminal domain 1-270, C-terminal domain 289-542
Put plainly: X-ray crystallography; native MS. Type of experiment: binding. The conditions noted are these: co-purified from E. coli, none added; non-covalent; folded conformation, C-terminal part of cavity; also Form II crystal 6J1E.

The target in experiment [2] is T2, HypX (Aquifex aeolicus, UniProt O67224, Q15A/R131A/S194A/Q195A/N306A/R542A).
T2 construct: gene hoxX; residues up to 562 described; acid-denatured mass 67,531 Da; monomer; N-terminal domain 1-270, C-terminal domain 289-542
Put plainly: native MS. Type of experiment: binding. The conditions noted are these: non-denaturing, 500 mM ammonium acetate pH 6.8; co-purified from E. coli; CoA absent in crystal structure 6J1H.

In experiment [3] the target is T3, HypX (Aquifex aeolicus, UniProt O67224, R9A/Q15A/R131A/R542A).
T3 construct: gene hoxX; residues up to 562 described; acid-denatured mass 67,531 Da; monomer; N-terminal domain 1-270, C-terminal domain 289-542
Put plainly: X-ray crystallography. Format: binding. The conditions noted are these: co-purified from E. coli; folded conformation.

Experiment [4] has as its target T4, HypX (Aquifex aeolicus, UniProt O67224, A392F/I419F).
T4 construct: gene hoxX; residues up to 562 described; acid-denatured mass 67,531 Da; monomer; N-terminal domain 1-270, C-terminal domain 289-542
The experiment in a line: X-ray crystallography. Format: binding. The conditions noted are these: co-purified from E. coli; extended conformation, without THF (THF-bound structure 6J1J also holds CoA).

Experiment [5] addresses T1, HypX. The experiment in a line: X-ray crystallography, crystal soaking. Format: binding. Conditions: Form I crystals soaked with THF; N-terminal domain, chain A only.
Experiment [6] addresses T4, HypX. Put plainly: X-ray crystallography, crystal soaking. Type of experiment: binding. The conditions noted are these: CoA also bound, extended conformation; N-terminal region of cavity.
In experiment [7] the target is A. aeolicus HypC (Aquifex aeolicus). Put plainly: SEC; Superdex75 10/300GL, 50 mM Tris-HCl (pH 8.0), 200 mM NaCl, 1 mM DTT; HypC alone, HypD alone, and HypC and HypD mixed in equal molar amount; apparent masses. For orientation: SEC sorts molecules by how far they enter the pores of the column.
Experiment [8] deals with HypC/HypD complex (A. aeolicus) (Aquifex aeolicus) (UniProt O67225). The experiment in a line: SEC; Superdex200 10/300GL, 50 mM Tris-HCl (pH 8.0), 200 mM NaCl, 1 mM DTT; HypC, HypD and HypX mixed in equal molar amount; apparent mass.

T1 sequence (O67224 entry or part of it): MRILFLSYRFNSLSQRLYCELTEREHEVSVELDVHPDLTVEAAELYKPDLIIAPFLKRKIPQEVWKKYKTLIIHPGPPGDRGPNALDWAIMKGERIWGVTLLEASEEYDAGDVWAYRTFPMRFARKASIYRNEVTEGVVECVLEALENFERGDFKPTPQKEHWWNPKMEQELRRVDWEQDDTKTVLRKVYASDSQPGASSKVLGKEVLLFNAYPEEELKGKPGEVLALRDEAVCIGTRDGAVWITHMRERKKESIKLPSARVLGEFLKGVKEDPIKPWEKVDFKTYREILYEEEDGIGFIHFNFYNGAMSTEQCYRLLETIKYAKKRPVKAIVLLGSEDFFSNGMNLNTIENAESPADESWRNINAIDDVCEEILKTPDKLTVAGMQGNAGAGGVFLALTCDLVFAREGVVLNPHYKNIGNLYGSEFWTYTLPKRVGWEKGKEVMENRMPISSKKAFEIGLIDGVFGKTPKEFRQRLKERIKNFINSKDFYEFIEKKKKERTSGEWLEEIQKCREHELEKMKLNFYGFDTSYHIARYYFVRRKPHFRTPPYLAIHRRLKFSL
T4 sequence (O67224 entry or part of it A392F/I419F): as the sequence (O67224 entry or part of it) above, with A392F, I419F counted along it
T2 sequence (O67224 entry or part of it Q15A/R131A/S194A/Q195A/N306A/R542A): as the sequence (O67224 entry or part of it) above, with Q15A, R131A, S194A, Q195A, N306A, R542A counted along it
T3 sequence (O67224 entry or part of it R9A/Q15A/R131A/R542A): as the sequence (O67224 entry or part of it) above, with R9A, Q15A, R131A, R542A counted along it

Consider `CC(C)(COP(=O)(O)OP(=O)(O)OC[C@H]1O[C@@H](n2cnc3c(N)ncnc32)[C@H](O)[C@@H]1OP(=O)(O)O)[C@@H](O)C(=O)NCCC(=O)NCCS` [CoA], for which the “X-ray crystallography; native MS” value at HypX [1] is reported as “HypX binds CoA constitutively with a high binding affinity”. Moreover, at HypX [2], the “native MS” value is “showed two MS peaks due to apo (CoA-free) and holo (CoA-bound) form”. The values for the X-ray crystallography result on HypX [3] and on HypX [4] were “this variant binds CoA with the folded conformation as is the case of wild-type” and “CoA is able to adopt the extended conformation in the A392F-I419F variant”, respectively.

As for `Nc1nc2c(c(=O)[nH]1)N[C@@H](CNc1ccc(C(=O)N[C@@H](CCC(=O)O)C(=O)O)cc1)CN2` [THF], the “X-ray crystallography, crystal soaking” value was “We obtained HypX-THF complex by soaking Form I HypX crystals with THF” on HypX [5] and “THF is bound at the N-terminal region of the cavity at the same position” on HypX [6].

As a reminder, the stoichiometry N is the number of molecules, sites or subunits per partner or assembly. As to A. aeolicus HypC (natural protein), the stoichiometry N in experiment [7] was 2.

As for HypX from Aquifex aeolicus (enzyme), in experiment [8], the stoichiometry N amounted to 1.
